# Tests used:
# interleukin-8 (IL8) = test: Retinol-induced interleukin-8 release from reconstituted epidermis (ELISA on culture medium); format: cell-based, human; conditions: for % reduction of IL8 release Control + retinol: measured after 48 hours and 96 hours (time not given)
# Method: Samples of reconstituted epidermis were topically applied with gel/emulsions containing retinol (0.075 wt. %) and a series of test ingredients. The release of interleukin-8 (IL8) was measured in the culture medium after 48 hours by an ELISA method. No significant loss of viability was evidenced. No release of interleukin-1 (IL1) was observed.
# Samples of reconstituted epidermis were topically applied with gel/emulsions containing retinol (0.075 wt. %) and one of the following test ingredients: Dragocalm® (at 1.5 wt. % and 3.5 wt. %), dipotassium glycyrrhenzinate (at 0.5 wt. %), Rona Care® ectoine (at 0.1 wt. %, 0.25 wt. %), and a willow herb (0.1 wt. %)/oat straw (0.1 wt. %) extract combination. The release of IL8 was measured in each culture medium after 48 hours and 96 hours by an ELISA method. No significant loss of viability was evidenced. No release of IL1 was observed.
# [1] = system: retinol induced skin redness; test: Repeated patch test on backs of human volunteers, cumulated redness score; format: in vivo; conditions: for inhibition of retinol-induced redness (in words): concentration not given, retinol 0.1 wt. %, human volunteers; for Score (cumulated redness score): 48 hours patches, three times a week during three weeks
# Method: Based on the foregoing results, Dragocalm®, ectoine, and dipotassium glycyrrhenzinate were tested further on human volunteers for their potential to reduce retinol induced skin redness. Patches containing formulas comprising either retinol (0.1 wt. %) or retinol (0.1 wt. %) plus the test ingredient Dragocalm®, ectoine, or dipotassium glycyrrhenzinate were applied during 48 hours to the backs of volunteers three times a week during three weeks. Redness induced by the patches was examined and scored after each patch removal. Every individual score for each product were cumulated to give the final scores.
# [2] = retinol 0.1 wt. % + test ingredient 0.25 wt. %
# [3] = retinol 0.1 wt. % + test ingredient 0.5 wt. %
compound,measurement,setting,value
"CC(C)=CCC[C@](C)(O)[C@@H]1CC=C(C)CC1 [Alpha Bisabolol, reference compound]",% Reduction of Interleukin-8 compared with Control + Retinol,"interleukin-8 (IL8); Example 1, test ingredient 0.05 wt. % in gel/emulsion with retinol 0.075 wt. %, 48 hours",−4%
"CC1=NC(C(=O)O)CCN1 (centres unmarked) [Rona Care ® Ectoin, 1,4,5,6-tetrahydro-2-methyl-4-pyrimidine carboxylic acid]",decrease of retinol induced IL8 release,"interleukin-8 (IL8); Example 1, 1 wt. %, retinol 0.075 wt. %, 48 hours",55%
same,% Reduction of Interleukin-8 compared with Control + Retinol,"interleukin-8 (IL8); Example 1, test ingredient 1 wt. % in gel/emulsion with retinol 0.075 wt. %, 48 hours",−55%
same,activity on IL8 release (in words),"interleukin-8 (IL8); Example 2, 0.1 wt. %, retinol 0.075 wt. %",no activity
same,reduction (inhibition) of IL8 release,"interleukin-8 (IL8); Example 2, 0.25 wt. %, retinol 0.075 wt. %",60%
same,% reduction of IL8 release Control + retinol,"interleukin-8 (IL8); Example 2, test ingredient 0.1 wt. %, retinol 0.075 wt. %",−31%
same,% reduction of IL8 release Control + retinol,"interleukin-8 (IL8); Example 2, test ingredient 0.25 wt. %, retinol 0.075 wt. %",−60%
same,inhibition of retinol-induced redness (in words),[1],reduced redness but to a lesser extent
same,% reduction (of redness score vs Control + Retinol 0.1 wt. %),[1]; [2],−56%
same,Score (cumulated redness score),[1]; [2],9.5
"CCCCCCCCCCCCCCCCCCOC(=O)[C@@]1(C)CC[C@]2(C)CC[C@]3(C)C(=CC(=O)[C@@H]4[C@@]5(C)CC[C@H](O)C(C)(C)[C@@H]5CC[C@]43C)[C@@H]2C1 [Stearyl Glycirrhezinate, reference compound]",% Reduction of Interleukin-8 compared with Control + Retinol,"interleukin-8 (IL8); Example 1, test ingredient 0.1 wt. % in gel/emulsion with retinol 0.075 wt. %, 48 hours",26%
Dipotassium Glycirrhezinate [reference compound],% Reduction of Interleukin-8 compared with Control + Retinol,"interleukin-8 (IL8); Example 1, test ingredient 0.2 wt. % in gel/emulsion with retinol 0.075 wt. %, 48 hours",−29%
same,reduction (inhibition) of IL8 release,"interleukin-8 (IL8); Example 2, 0.5 wt. %, retinol 0.075 wt. %",63%
same,% reduction of IL8 release Control + retinol,"interleukin-8 (IL8); Example 2, test ingredient 0.5 wt. %, retinol 0.075 wt. %",−63%
same,inhibition of retinol-induced redness (in words),[1],not effective
same,% reduction (of redness score vs Control + Retinol 0.1 wt. %),[1]; [3],−21%
same,Score (cumulated redness score),[1]; [3],17

# Source: patent US20080200477A1, “Retinoid-Containing Compositions Having Reduced Irritation Effect” (priority 2004, published 2008)
